Data reported in the supplement of paper PMC5579334.
± gives the standard deviation of the averaged measurements.

Assays:
[1] = test system: HS-PSS; experiment: drug sensitivity score (DSS, CellTiter-Glo viability, 72 h) (DSS (dimensionless)); higher = more sensitive; extreme values may be limits of the assay
How it was run: (§1)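 MPNST cell lines and primary human Schwann cells (750–1000 cells per well) went into 384-well plates preprinted with each compound at five concentrations in 10-fold steps. Plates were incubated 72 h at 37 °C, 5% CO2. Viability was read as CellTiter-Glo ATP luminescence, scaled between vehicle and positive-control wells, with duplicates averaged where present. Percent inhibition is at the top concentration; drug sensitivity score and relative IC50 (censored at top concentration) come from four-parameter logistic fits.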

[2] = test system: HS-Sch-2; experiment: as above
How it was run: as §1

[3] = test system: S462; experiment: as above
How it was run: as §1

[4] = test system: ST8814; experiment: as above
How it was run: as §1

[5] = test system: YST-1; experiment: as above
How it was run: as §1

[6] = test system: HSC2 (primary human Schwann cells); experiment: as above
How it was run: as §1

[7] = test system: STS26T; experiment: as above
How it was run: as §1

[8] = test system: HSC1 (primary human Schwann cells); experiment: as above
How it was run: as §1

[9] = test system: S1507-2; experiment: as above
How it was run: as §1

[10] = test system: HS-PSS; experiment: drug sensitivity score (DSS, CellTox-Green cytotoxicity, 72 h) (DSS (dimensionless)); higher = more cytotoxic; extreme values may be limits of the assay
How it was run: (§2)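 MPNST cell lines and primary human Schwann cells were incubated 72 h at 37 °C in 384-well plates holding five 10-fold compound dilutions. CellTox-Green was added before seeding at a final 1:1000 dilution and reported fluorescence from DNA released by disrupted cells. Signals were scaled to vehicle and positive-control wells, and cultures failing plate quality control were dropped. Drug sensitivity score and relative IC50 come from four-parameter logistic fits, with IC50 censored at the top concentration.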

[11] = test system: ST8814; experiment: as above
How it was run: as §2

[12] = test system: HSC2 (primary human Schwann cells); experiment: as above
How it was run: as §2

[13] = test system: STS26T; experiment: as above
How it was run: as §2

[14] = test system: HSC1 (primary human Schwann cells); experiment: as above
How it was run: as §2

[15] = test system: S1507-2; experiment: as above
How it was run: as §2

[16] = test system: HS-PSS; experiment: % inhibition of CellTiter-Glo viability at highest tested concentration (72 h), relative to DMSO and benzethonium chloride controls; higher = more inhibition
How it was run: as §1

[17] = test system: HS-Sch-2; experiment: as above
How it was run: as §1

[18] = test system: S462; experiment: as above
How it was run: as §1

[19] = test system: ST8814; experiment: as above
How it was run: as §1

[20] = test system: YST-1; experiment: as above
How it was run: as §1

[21] = test system: HSC2 (primary human Schwann cells); experiment: as above
How it was run: as §1

[22] = test system: STS26T; experiment: as above
How it was run: as §1

[23] = test system: HSC1 (primary human Schwann cells); experiment: as above
How it was run: as §1

[24] = test system: S1507-2; experiment: as above
How it was run: as §1

SMILES	drug sensitivity score [1]	drug sensitivity score [2]	drug sensitivity score [3]	drug sensitivity score [4]	drug sensitivity score [5]	drug sensitivity score [6]	drug sensitivity score [7]	drug sensitivity score [8]	drug sensitivity score [9]	drug sensitivity score [10]	drug sensitivity score [11]	drug sensitivity score [12]	drug sensitivity score [13]	drug sensitivity score [14]	drug sensitivity score [15]	% inhibition [16] [%]	% inhibition [17] [%]	% inhibition [18] [%]	% inhibition [19] [%]	% inhibition [20] [%]	% inhibition [21] [%]	% inhibition [22] [%]	% inhibition [23] [%]	% inhibition [24] [%]
C[C@@H]1C[C@H]2[C@@H]3CCC4=CC(=O)C=C[C@]4(C)[C@@]3(F)[C@@H](O)C[C@]2(C)[C@@]1(O)C(=O)CO [Dexamethasone] (max concentration tested 10000 nM)	0	0	0.0796 ± 0.11	4.78	2.91	0	0	0	1.35 ± 1.9	0	0	0	0	0	0	-11.7	11.7	9.85 ± 6.5	22.9	6.77	-7.28	3.98	-11.8	16.5 ± 13
CCc1cnn2c(NCc3ccc[n+]([O-])c3)cc(N3CCCC[C@H]3CCO)nc12 [Dinaciclib] (max concentration tested 1000 nM)	21	25.1	24.4 ± 0.71	15	25.2	19.9	21.6	16.9	15 ± 1.9	5.02	5.45	7.57	14.8	5.96	2.29 ± 3.1	84.2	101	90.8 ± 2.7	80.5	99.5	86.4	92.7	83.5	76.6 ± 1.6
CC(=O)O[C@@]12CO[C@@H]1C[C@H](O)[C@@]1(C)C(=O)[C@H](O)C3=C(C)[C@@H](OC(=O)[C@H](O)[C@@H](NC(=O)OC(C)(C)C)c4ccccc4)C[C@@](O)([C@@H](OC(=O)c4ccccc4)[C@H]21)C3(C)C [Docetaxel] (max concentration tested 1000 nM)	15.2	30.8	36.7 ± 1.5	24.8	29.1	22.3	35.5	21.9	20.5 ± 0.58	0.9	27.1	24.4	36	17.3	22 ± 1.6	52.7	96.2	96.9 ± 1.2	89.2	75.9	74.4	99.9	71.7	83.195 ± 0.0062
Cc1ccc(-n2nc(C(C)(C)C)cc2NC(=O)Nc2ccc(OCCN3CCOCC3)c3ccccc23)cc1 [Doramapimod] (max concentration tested 10000 nM)	6.23	3.93	0.326 ± 0.46	0	10.5	2.53	0	1.15	0	1.28	0	0	0	0	1.81 ± 0.51	68.6	55.8	12.1 ± 6.3	-7.45	80.8	32.9	1.72	26.7	0.115 ± 1.9
CN1CCN(c2ccc3nc(-c4c(N)c5c(F)cccc5[nH]c4=O)[nH]c3c2)CC1 [Dovitinib] (max concentration tested 10000 nM)	0	0.84	0.655 ± 0.32	0	0.32	0.382	0.0001	1.65	3.54 ± 3.6	0	0	0	0	0	0	-2.95	22.3	18.1 ± 0.51	-2.1	17.6	16.2	10.4	19.1	21.7 ± 2.2
COc1cccc2c1C(=O)c1c(O)c3c(c(O)c1C2=O)C[C@@](O)(C(=O)CO)C[C@@H]3O[C@H]1C[C@H](N)[C@H](O)[C@H](C)O1 [Doxorubicin] (max concentration tested 1000 nM)	7.71	10.2	13.1 ± 0.35	9.59	13.9	11.2	12.7	11.9	10.6 ± 1.9	0.81	0	18	0.331	0.0904	0.0502 ± 0.071	96.1	100	98.561 ± 0.012	96.1	98.3	99.6	98.4	99.1	83.5 ± 6.7
Nc1ccccc1NC(=O)c1ccc(CNC(=O)OCc2cccnc2)cc1 [Entinostat] (max concentration tested 10000 nM)	2.31	4.13	9.84 ± 0.75	4.2	10.3	4.87	4.35	5.09	4.79 ± 0.3	0.63	2.69	0	0.625	0	2.98 ± 1.3	52	79.7	105.3 ± 0.38	87.7	97.7	73	69.3	71.2	74.9 ± 7.7
CNC(=O)c1ccc(N2C(=S)N(c3ccc(C#N)c(C(F)(F)F)c3)C(=O)C2(C)C)cc1F [Enzalutamide] (max concentration tested 10000 nM)	0	0	0	0.0064	0	0	0	0.165	1.03 ± 1.4	0	0	0	0	0	2.11 ± 3	7.35	-3.43	-3 ± 1.3	11.6	4.16	-3.12	3.2	14.3	14.2 ± 18
Cn1cc(C2=C(c3cn(C4CCN(Cc5ccccn5)CC4)c4ccccc34)C(=O)NC2=O)c2ccccc21 [Enzastaurin] (max concentration tested 10000 nM)	3.43	0.28	0.0347 ± 0.049	0.0668	0	1.06	1.09	1.32	3.15 ± 2.5	0	0	0	0.0176	0	0	11.3	12.3	10.8 ± 2.6	12.8	-1.13	25.1	19.9	21.8	26.9 ± 3.6
C#Cc1cccc(Nc2ncnc3cc(OCCOC)c(OCCOC)cc23)c1 [Erlotinib] (max concentration tested 10000 nM)	3.63	5.08	3.86 ± 0.29	1.41	5.25	5.39	2.29	5.2	1.85 ± 2	0	0	0	0	0	0	48.6	55.9	54.5 ± 2.7	31.1	56.7	74.7	33.2	73.1	26.3 ± 10
COc1cc([C@@H]2c3cc4c(cc3[C@@H](O[C@@H]3O[C@@H]5CO[C@@H](C)O[C@H]5[C@H](O)[C@H]3O)[C@H]3COC(=O)[C@H]23)OCO4)cc(OC)c1O [Etoposide] (max concentration tested 10000 nM)	3.08	8.86	11.55 ± 0.037	5.79	14.5	11.2	7.33	7.17	5.59 ± 0.81	0	3.52	3.62	5.16	2.21	1.82 ± 2.4	33	79.1	90.4 ± 2.4	70.7	73.5	63.6	68	57.3	59.8 ± 1
CO[C@H]1C[C@@H]2CC[C@@H](C)[C@@](O)(O2)C(=O)C(=O)N2CCCC[C@H]2C(=O)O[C@H]([C@H](C)C[C@@H]2CC[C@@H](OCCO)[C@H](OC)C2)CC(=O)[C@H](C)/C=C(\C)[C@@H](O)[C@@H](OC)C(=O)[C@H](C)C[C@H](C)/C=C/C=C/C=C/1C [Everolimus] (max concentration tested 100 nM)	3.56	3.17	8.44 ± 0.54	7.31	4.45	15.8	15.6	17.2	6.7 ± 1.1	0	0	0	0	0	6.46 ± 9.1	23.8	18.4	29.4 ± 7.3	28.3	38.7	48.5	45.4	44.5	31 ± 1.7
